PubChem BioAssay (NCI)
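Results reflect a 48-hour exposure of cells in 96-well plates to compound at five concentrations. TGI denotes the concentration required for complete inhibition of growth.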

Key:
Assay in all cases: NCI anticancer screen, dose series, 48 h
786-0 renal = system: 786-0 renal
BT-549 breast = system: BT-549 breast
CAKI-1 renal = system: CAKI-1 renal
CCRF-CEM leukemia = system: CCRF-CEM leukemia
COLO 205 colon = system: COLO 205 colon
EKVX NSCLC = system: EKVX NSCLC
HCC-2998 colon = system: HCC-2998 colon
HCT-15 colon = system: HCT-15 colon
HOP-62 NSCLC = system: HOP-62 NSCLC
HOP-92 NSCLC = system: HOP-92 NSCLC
HS 578T breast = system: HS 578T breast
HT29 colon = system: HT29 colon
IGROV1 ovarian = system: IGROV1 ovarian
K-562 leukemia = system: K-562 leukemia
KM12 colon = system: KM12 colon
LOX IMVI melanoma = system: LOX IMVI melanoma
M14 melanoma = system: M14 melanoma
MALME-3M melanoma = system: MALME-3M melanoma
MCF7 breast = system: MCF7 breast
MDA-MB-231 breast = system: MDA-MB-231 breast
MDA-MB-435 = system: MDA-MB-435
MDA-N = system: MDA-N
MOLT-4 leukemia = system: MOLT-4 leukemia
NCI-H23 lung = system: NCI-H23 lung
NCI-H460 lung = system: NCI-H460 lung
NCI-H522 lung = system: NCI-H522 lung
NCI/ADR-RES ovarian = system: NCI/ADR-RES ovarian
OVCAR-3 ovarian = system: OVCAR-3 ovarian
OVCAR-4 ovarian = system: OVCAR-4 ovarian
OVCAR-5 ovarian = system: OVCAR-5 ovarian
OVCAR-8 ovarian = system: OVCAR-8 ovarian
PC-3 prostate = system: PC-3 prostate
RPMI-8226 leukemia = system: RPMI-8226 leukemia
SF-268 CNS = system: SF-268 CNS
SF-295 CNS = system: SF-295 CNS
SK-MEL-2 melanoma = system: SK-MEL-2 melanoma
SK-MEL-28 melanoma = system: SK-MEL-28 melanoma
SK-MEL-5 melanoma = system: SK-MEL-5 melanoma
SK-OV-3 ovarian = system: SK-OV-3 ovarian
SN12C renal = system: SN12C renal
SNB-19 CNS = system: SNB-19 CNS
SNB-75 CNS = system: SNB-75 CNS
SR leukemia = system: SR leukemia
SW-620 colon = system: SW-620 colon
T-47D breast = system: T-47D breast
TK-10 renal = system: TK-10 renal
U251 CNS = system: U251 CNS
UACC-257 melanoma = system: UACC-257 melanoma
UACC-62 melanoma = system: UACC-62 melanoma
UO-31 renal = system: UO-31 renal
A498 renal = system: A498 renal
A549 NSCLC = system: A549 NSCLC
ACHN renal = system: ACHN renal
DU-145 prostate = system: DU-145 prostate
HCT-116 colon = system: HCT-116 colon
NCI-H226 lung = system: NCI-H226 lung
RXF 393 renal = system: RXF 393 renal
SF-539 CNS = system: SF-539 CNS

`CCC1(O)CC(OC2CC(N(C)C)C(OC3CC(O)C(OC4CCC(=O)C(C)O4)C(C)O3)C(C)O2)c2c(cc3c(c2O)C(=O)c2c(O)ccc(O)c2C3=O)C1C(=O)OC` (stereo not drawn) showed a TGI (786-0 renal) of 0.493 µM, a TGI (BT-549 breast) of 1.78 µM and a TGI (CAKI-1 renal) of under 0.01 µM. It also gave a TGI (CCRF-CEM leukemia) of 0.0528 µM, a TGI (COLO 205 colon) of 0.0131 µM and a TGI (EKVX NSCLC) of 0.116 µM. It also gave a TGI (HCC-2998 colon) of under 0.0112 µM, a TGI (HCT-15 colon) of 0.018 µM and a TGI (HOP-62 NSCLC) of 0.156 µM. The TGI (HOP-92 NSCLC) was 0.0185 µM, the TGI (HS 578T breast) was 0.384 µM and the TGI (HT29 colon) was under 0.0105 µM. It also gave a TGI (IGROV1 ovarian) of 1.22 µM, a TGI (K-562 leukemia) of under 0.01 µM and a TGI (KM12 colon) of 0.0994 µM. It also gave a TGI (LOX IMVI melanoma) of under 0.01 µM, a TGI (M14 melanoma) of 0.0516 µM and a TGI (MALME-3M melanoma) of 0.029 µM. The TGI (MCF7 breast) was 2.01 µM, the TGI (MDA-MB-231 breast) was 0.113 µM and the TGI (MDA-MB-435) was 0.409 µM. The TGI (MDA-N) was 0.0251 µM, the TGI (MOLT-4 leukemia) was 0.0101 µM and the TGI (NCI-H23 lung) was 0.0343 µM. The TGI (NCI-H460 lung) was under 0.01 µM, the TGI (NCI-H522 lung) was under 0.01 µM and the TGI (NCI/ADR-RES ovarian) was 0.259 µM. For the same compound, the TGI (OVCAR-3 ovarian) was 0.186 µM, the TGI (OVCAR-4 ovarian) was 0.214 µM and the TGI (OVCAR-5 ovarian) was 10.8 µM. It also gave a TGI (OVCAR-8 ovarian) of 0.0739 µM, a TGI (PC-3 prostate) of 0.393 µM and a TGI (RPMI-8226 leukemia) of 0.0109 µM. The TGI (SF-268 CNS) was 0.208 µM, the TGI (SF-295 CNS) was 0.441 µM and the TGI (SK-MEL-2 melanoma) was 0.0148 µM. For the same compound, the TGI (SK-MEL-28 melanoma) was 0.211 µM, the TGI (SK-MEL-5 melanoma) was 0.0282 µM and the TGI (SK-OV-3 ovarian) was 13.3 µM. It also gave a TGI (SN12C renal) of 1.18 µM, a TGI (SNB-19 CNS) of 2.41 µM and a TGI (SNB-75 CNS) of 0.0846 µM. For the same compound, the TGI (SR leukemia) was under 0.01 µM, the TGI (SW-620 colon) was 3.56 µM and the TGI (T-47D breast) was 0.597 µM. The TGI (TK-10 renal) was 0.0339 µM, the TGI (U251 CNS) was 2.22 µM and the TGI (UACC-257 melanoma) was 0.0294 µM. The TGI (UACC-62 melanoma) was under 0.0132 µM and the TGI (UO-31 renal) was under 0.01 µM.

For `COC(=O)/C1=C/c2c([nH]c3ccccc23)/C(C(=O)OC)=C\c2c1[nH]c1ccccc21`, the TGI (786-0 renal) was over 50 µM, the TGI (A498 renal) was over 50 µM and the TGI (A549 NSCLC) was over 50 µM. It also gave a TGI (ACHN renal) of over 50 µM, a TGI (BT-549 breast) of over 50 µM and a TGI (CAKI-1 renal) of over 50 µM. It also gave a TGI (COLO 205 colon) of over 50 µM, a TGI (DU-145 prostate) of over 50 µM and a TGI (EKVX NSCLC) of over 50 µM. For the same compound, the TGI (HCT-116 colon) was over 50 µM, the TGI (HCT-15 colon) was over 50 µM and the TGI (HOP-62 NSCLC) was over 50 µM. The TGI (HS 578T breast) was over 50 µM, the TGI (IGROV1 ovarian) was 38.9 µM and the TGI (KM12 colon) was over 50 µM. For the same compound, the TGI (LOX IMVI melanoma) was over 50 µM, the TGI (M14 melanoma) was over 50 µM and the TGI (MALME-3M melanoma) was over 50 µM. For the same compound, the TGI (MCF7 breast) was over 50 µM, the TGI (MDA-MB-231 breast) was over 50 µM and the TGI (MDA-MB-435) was over 50 µM. The TGI (MDA-N) was over 50 µM, the TGI (NCI-H226 lung) was over 50 µM and the TGI (NCI-H23 lung) was over 50 µM. For the same compound, the TGI (NCI-H460 lung) was over 50 µM, the TGI (NCI-H522 lung) was 22 µM and the TGI (NCI/ADR-RES ovarian) was over 50 µM. It also gave a TGI (OVCAR-3 ovarian) of over 50 µM, a TGI (OVCAR-5 ovarian) of over 50 µM and a TGI (OVCAR-8 ovarian) of over 50 µM. For the same compound, the TGI (RXF 393 renal) was 33.3 µM, the TGI (SF-268 CNS) was over 50 µM and the TGI (SF-295 CNS) was over 50 µM. For the same compound, the TGI (SF-539 CNS) was over 50 µM, the TGI (SK-MEL-2 melanoma) was over 50 µM and the TGI (SK-MEL-5 melanoma) was over 50 µM. The TGI (SK-OV-3 ovarian) was over 50 µM, the TGI (SN12C renal) was over 50 µM and the TGI (SNB-19 CNS) was over 50 µM. For the same compound, the TGI (SW-620 colon) was over 50 µM, the TGI (T-47D breast) was over 50 µM and the TGI (TK-10 renal) was over 50 µM. It also gave a TGI (U251 CNS) of over 50 µM, a TGI (UACC-257 melanoma) of over 50 µM and a TGI (UACC-62 melanoma) of over 50 µM. For the same compound, the TGI (UO-31 renal) was over 50 µM.

`NS(=O)(=O)c1nnc(NS(=O)(=O)c2ccc(F)cc2)s1` gave a TGI (786-0 renal) of over 100 µM, a TGI (A498 renal) of over 100 µM and a TGI (A549 NSCLC) of over 100 µM. The TGI (ACHN renal) was over 100 µM, the TGI (BT-549 breast) was over 100 µM and the TGI (CAKI-1 renal) was over 100 µM. The TGI (CCRF-CEM leukemia) was over 100 µM, the TGI (COLO 205 colon) was over 100 µM and the TGI (DU-145 prostate) was over 100 µM. It also gave a TGI (EKVX NSCLC) of over 100 µM, a TGI (HCC-2998 colon) of over 100 µM and a TGI (HCT-116 colon) of over 100 µM. The TGI (HCT-15 colon) was over 100 µM, the TGI (HOP-62 NSCLC) was over 100 µM and the TGI (HOP-92 NSCLC) was over 100 µM. The TGI (HS 578T breast) was over 100 µM, the TGI (K-562 leukemia) was over 100 µM and the TGI (KM12 colon) was over 100 µM. For the same compound, the TGI (LOX IMVI melanoma) was over 100 µM, the TGI (M14 melanoma) was over 100 µM and the TGI (MCF7 breast) was over 100 µM. For the same compound, the TGI (MDA-MB-231 breast) was over 100 µM, the TGI (MDA-MB-435) was over 100 µM and the TGI (MDA-N) was over 100 µM. The TGI (MOLT-4 leukemia) was over 100 µM, the TGI (NCI-H226 lung) was over 100 µM and the TGI (NCI-H23 lung) was over 100 µM. The TGI (NCI-H460 lung) was over 100 µM, the TGI (NCI/ADR-RES ovarian) was over 100 µM and the TGI (OVCAR-3 ovarian) was over 100 µM. The TGI (OVCAR-4 ovarian) was over 100 µM, the TGI (OVCAR-5 ovarian) was over 100 µM and the TGI (OVCAR-8 ovarian) was over 100 µM. For the same compound, the TGI (RPMI-8226 leukemia) was over 100 µM, the TGI (RXF 393 renal) was over 100 µM and the TGI (SF-268 CNS) was over 100 µM. It also gave a TGI (SF-295 CNS) of over 100 µM, a TGI (SF-539 CNS) of over 100 µM and a TGI (SK-MEL-2 melanoma) of over 100 µM. For the same compound, the TGI (SK-MEL-28 melanoma) was over 100 µM, the TGI (SK-MEL-5 melanoma) was over 100 µM and the TGI (SK-OV-3 ovarian) was over 100 µM. It also gave a TGI (SN12C renal) of over 100 µM, a TGI (SNB-19 CNS) of over 100 µM and a TGI (SR leukemia) of over 100 µM. For the same compound, the TGI (SW-620 colon) was over 100 µM, the TGI (T-47D breast) was over 100 µM and the TGI (TK-10 renal) was over 100 µM. For the same compound, the TGI (U251 CNS) was over 100 µM, the TGI (UACC-257 melanoma) was over 100 µM and the TGI (UACC-62 melanoma) was over 100 µM. The TGI (UO-31 renal) was over 100 µM.
